Earlier results on one compound are cited in patent US7057165B2, “Probe for mass spectrometry” (Sense Proteomic Ltd., priority 2001, dated 2006).

This data set deals with T1, lectin from Arachis hypogea (Arachis hypogaea, UniProt P02872).
T1 construct: biotin (biotinylated lectin)
T1 sequence (P02872 24-259 limits assumed): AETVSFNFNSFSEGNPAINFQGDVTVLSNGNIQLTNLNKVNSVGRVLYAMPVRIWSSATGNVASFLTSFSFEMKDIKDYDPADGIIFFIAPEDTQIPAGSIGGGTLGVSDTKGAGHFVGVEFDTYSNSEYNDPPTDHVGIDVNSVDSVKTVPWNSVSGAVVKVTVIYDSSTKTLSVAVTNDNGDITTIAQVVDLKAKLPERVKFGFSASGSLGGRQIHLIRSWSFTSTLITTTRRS

For `OC[C@H]1O[C@@H](O[C@H]2[C@H](O)[C@@H](O)C(O)O[C@@H]2CO)[C@H](O)[C@@H](O)[C@H]1O` (stereo partly shown) [lactose], the “binding constant for this lectin” value was “millimolar range”.
